The values that follow come from US12404295B2, “(Hetero)aryl-methyl-thio-beta-D-galactopyranoside derivatives” (Idorsia Pharmaceuticals Ltd, priority 2019, dated 2025).

For orientation: IC50 means the concentration at which inhibition is half-maximal.

Like-named read-outs stand apart in the source and are kept apart here.

One assay has as its target human Gal-3 (hGal-3) (Homo sapiens (Human), UniProt P17931). Briefly: competitive binding assay: biotinylated hGal-3 binding to microplate-adsorbed asialofetuin (ASF). Summed up: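 Serially diluted compounds compete with biotinylated hGal-3 binding to adsorbed asialofetuin (3 hours, 4° C). After washing, streptavidin-peroxidase at 80 ng/mL for 1 hour at 4° C, with ABTS colour read-out. IC50 values are averaged over repeated runs.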

For a further assay, the target named is human Gal-1 (hGal-1) (Homo sapiens (Human), UniProt P09382). Briefly: competitive binding assay: biotinylated hGal-1 binding to microplate-adsorbed asialofetuin (ASF). The note with it: Table 15; read-out: IC50 (Galectin-1 inhibition). Summed up:
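Spectrophotometric competition readout: after compound and biotinylated hGal-1 (300-1000 ng/mL) sit 3 h at 4° C on adsorbed asialofetuin, streptavidin-peroxidase (1 h, 4° C) and ABTS reveal residual binding. Reported IC50 values are means of repeat runs.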

[1] abbreviates: Gal-3 inhibition, binding of biotinylated hGal-3 to ASF, mean values, read-out: IC50.
Where [2] appears, read: Table 9, 2-OMe-Gal inhibitors, read-out: IC50 (Gal-3 inhibition).
[3] abbreviates: Table 5, read-out: IC50 (Gal-3 inhibition).

human Gal-3 (hGal-3), sequence (P17931 whole entry): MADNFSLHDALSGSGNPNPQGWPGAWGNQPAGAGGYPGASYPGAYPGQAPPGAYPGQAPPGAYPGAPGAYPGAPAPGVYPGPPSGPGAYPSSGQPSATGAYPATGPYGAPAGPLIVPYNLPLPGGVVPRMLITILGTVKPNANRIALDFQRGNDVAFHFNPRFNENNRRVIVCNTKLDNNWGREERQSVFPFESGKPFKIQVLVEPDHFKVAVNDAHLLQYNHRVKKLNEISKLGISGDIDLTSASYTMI
human Gal-1 (hGal-1), sequence (P09382 whole entry): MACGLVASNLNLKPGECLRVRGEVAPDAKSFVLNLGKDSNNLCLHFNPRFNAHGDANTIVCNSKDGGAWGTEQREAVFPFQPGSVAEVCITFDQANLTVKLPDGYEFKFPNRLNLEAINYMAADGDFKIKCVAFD

On to `Cc1cccnc1[C@@H](S[C@@H]1O[C@H](CO)[C@H](O)[C@H](n2cc(-c3cc(F)c(F)c(F)c3)nn2)[C@H]1O)C1(O)CCC(F)(F)CC1` [Example 2.44.126R., (2S,3R,4S,5R,6R)-2-(((R)-(4,4-Difluoro-1-hydroxycyclohexyl)(3-methylpyridin-2-yl)methyl)thio)-6-(hydroxymethyl)-4-(4-(3,4,5-trifluorophenyl)-1H-1,2,3-triazol-1-yl)tetrahydro-2H-pyran-3,5-diol], for which the IC50 on human Gal-3 (hGal-3) (setting [1]) stood at 0.04 µM; on human Gal-1 (hGal-1), 0.3 µM.
Consider `Cc1ccccc1C(S[C@@H]1O[C@H](CO)[C@H](O)[C@H](n2cc(-c3cc(F)c(F)c(F)c3)nn2)[C@H]1O)C(C)(C)O` (stereo partly drawn) [Example 2.31.102., (2S,3R,4S,5R,6R)-2-((2-Hydroxy-2-methyl-1-(o-tolyl)propyl)thio)-6-(hydroxymethyl)-4-(4-(3,4,5-trifluorophenyl)-1H-1,2,3-triazol-1-yl)tetrahydro-2H-pyran-3,5-diol], for which the IC50 amounted to 0.17 µM on human Gal-3 (hGal-3) (setting [1]) and 2.14 µM on human Gal-1 (hGal-1).
In the case of `CO[C@@H]1[C@@H](n2cc(-c3cc(F)c(F)c(F)c3)nn2)[C@@H](O)[C@@H](CO)O[C@H]1S[C@H](c1ncccc1C(C)C)C1(O)CCC(F)(F)CC1` [Example 2.44.132R.I., (2R,3R,4S,5R,6S)-6-(((R)-(4,4-Difluoro-1-hydroxycyclohexyl)(3-isopropylpyridin-2-yl)methyl)thio)-2-(hydroxymethyl)-5-methoxy-4-(4-(3,4,5-trifluorophenyl)-1H-1,2,3-triazol-1-yl)tetrahydro-2H-pyran-3-ol], the IC50 on human Gal-3 (hGal-3) (setting [2]) turned out to be 0.12 µM; on human Gal-1 (hGal-1), 0.1 µM.
Take `Cc1ccccc1C(S[C@@H]1O[C@H](CO)[C@H](O)[C@H](n2cc(-c3cc(F)c(F)c(F)c3)nn2)[C@H]1O)C1(O)CCN(C)CC1` (stereo partly drawn) [Example 2.40.102., (2S,3R,4S,5R,6R)-2-(((4-Hydroxy-1-methylpiperidin-4-yl)(o-tolyl)methyl)thio)-6-(hydroxymethyl)-4-(4-(3,4,5-trifluorophenyl)-1H-1,2,3-triazol-1-yl)tetrahydro-2H-pyran-3,5-diol]: the IC50 was 0.09 µM on human Gal-3 (hGal-3) (setting [3]) and 0.73 µM at human Gal-1 (hGal-1).
In the case of `OCC(S[C@@H]1O[C@H](CO)[C@H](O)[C@H](n2cc(-c3cccc(F)c3)nn2)[C@H]1O)c1ccccc1Br` (stereo partly drawn) [Example 1.30.101., (2S,3R,4S,5R,6R)-2-((1-(2-Bromophenyl)-2-hydroxyethyl)thio)-4-(4-(3-fluorophenyl)-1H-1,2,3-triazol-1-yl)-6-(hydroxymethyl)tetrahydro-2H-pyran-3,5-diol], the IC50 on human Gal-3 (hGal-3) (setting [1]) turned out to be 1.7 µM; on human Gal-1 (hGal-1), 5.77 µM.
As for `CC(C)c1ccccc1C(S[C@@H]1O[C@H](CO)[C@H](O)[C@H](n2cc(-c3cc(F)c(F)c(F)c3)nn2)[C@H]1O)C(C)(C)O` (stereo partly drawn) [Example 2.31.105., (2S,3R,4S,5R,6R)-2-((2-Hydroxy-1-(2-isopropylphenyl)-2-methylpropyl)thio)-6-(hydroxymethyl)-4-(4-(3,4,5-trifluorophenyl)-1H-1,2,3-triazol-1-yl)tetrahydro-2H-pyran-3,5-diol], the IC50 is 0.18 µM at human Gal-3 (hGal-3) (setting [1]) and 0.3 µM at human Gal-1 (hGal-1).
Consider `Cc1ccncc1C(S[C@@H]1O[C@H](CO)[C@H](O)[C@H](n2cc(-c3cc(F)c(F)c(F)c3)nn2)[C@H]1O)C(C)(C)O` (stereo partly drawn) [Example 2.31.117., (2S,3R,4S,5R,6R)-2-((2-Hydroxy-2-methyl-1-(4-methylpyridin-3-yl)propyl)thio)-6-(hydroxymethyl)-4-(4-(3,4,5-trifluorophenyl)-1H-1,2,3-triazol-1-yl)tetrahydro-2H-pyran-3,5-diol], for which the half-maximal inhibitory concentration (IC50) on human Gal-3 (hGal-3) (setting [1]) was determined as 0.53 µM; at human Gal-1 (hGal-1), 4.95 µM.
Turning to `CO[C@@H]1[C@@H](n2cc(-c3cc(F)c(F)c(F)c3)nn2)[C@@H](O)[C@@H](CO)O[C@H]1SC(c1noc(C2CC2)c1C)C1(O)CCC(F)(F)CC1` (stereo partly drawn) [Example 2.44.145.I.], the IC50 on human Gal-3 (hGal-3) (Table 11, read-out: IC50 (Gal-3 inhibition)) was 0.71 µM; on human Gal-1 (hGal-1), 1.26 µM.
For “(2S,3R,4S,5R,6R)-2-(((4-Hydroxy-2,2-dimethyltetrahydro-2H-pyran-4-yl)(2-(trifluoromethyl)phenyl)methyl)thio)-6-(hydroxymethyl)-4-(4-(3,4,5-trifluorophenyl)-1H-1,2,3-triazol-1-yl)tetrahydro-2H-pyran-3,5-diol [Example 2.43.102.]”, the IC50 at human Gal-3 (hGal-3) (setting [3]) came to 0.12 µM; on human Gal-1 (hGal-1) it was 1.9 µM.
On to `CC(C)Cc1c([C@H](S[C@@H]2O[C@H](CO)[C@H](O)[C@H](n3cc(-c4cc(F)c(F)c(F)c4)nn3)[C@H]2O)C2(O)CCC(F)(F)CC2)noc1C1CC1` [Example 2.44.131S., (2S,3R,4S,5R,6R)-2-(((S)-(5-Cyclopropyl-4-isobutylisoxazol-3-yl)(4,4-difluoro-1-hydroxycyclohexyl)methyl)thio)-6-(hydroxymethyl)-4-(4-(3,4,5-trifluorophenyl)-1H-1,2,3-triazol-1-yl)tetrahydro-2H-pyran-3,5-diol], for which the half-maximal inhibitory concentration (IC50) on human Gal-3 (hGal-3) (setting [1]) amounted to 9.74 µM; at human Gal-1 (hGal-1) it was 13.7 µM.
`CC(C)(O)[C@@H](S[C@@H]1O[C@H](CO)[C@H](O)[C@H](n2cc(-c3cc(F)c(F)c(F)c3)nn2)[C@H]1O)c1ccccc1-c1ccccc1` [Example 2.31.110S., (2S,3R,4S,5R,6R)-2-(((S)-1-([1,1′-Biphenyl]-2-yl)-2-hydroxy-2-methylpropyl)thio)-6-(hydroxymethyl)-4-(4-(3,4,5-trifluorophenyl)-1H-1,2,3-triazol-1-yl)tetrahydro-2H-pyran-3,5-diol]: the IC50 at human Gal-3 (hGal-3) (setting [1]) worked out at 4.9 µM; on human Gal-1 (hGal-1), 16.7 µM.
`CC(C)c1ccccc1C(S[C@@H]1O[C@H](CO)[C@H](O)[C@H](n2cc(-c3cc(F)c(F)c(F)c3)nn2)[C@H]1O)C1(O)CCC(F)(F)CC1` (stereo partly drawn) [Example 2.44.105., (2S,3R,4S,5R,6R)-2-(((4,4-Difluoro-1-hydroxycyclohexyl)(2-isopropylphenyl)methyl)thio)-6-(hydroxymethyl)-4-(4-(3,4,5-trifluorophenyl)-1H-1,2,3-triazol-1-yl)tetrahydro-2H-pyran-3,5-diol [1,3-di-deoxy-1-((4,4-difluoro-1-hydroxy-cyclohexan-1-yl)-(2-(-isopropyl)phenyl)methyl-thio)-3-[4-(3,4,5-trifluorophenyl)-1H-1,2,3-triazol-1-yl]-β-D-galactopyranoside]]: the IC50 came out at 0.14 µM on human Gal-3 (hGal-3) (setting [3]) and 0.08 µM at human Gal-1 (hGal-1).
On to `CO[C@@H]1[C@@H](n2cc(-c3cc(F)c(F)c(F)c3)nn2)[C@@H](O)[C@@H](CO)O[C@H]1S[C@H](c1ncccc1C)C1(O)CCOCC1` [Example 2.41.126R.I., (2R,3R,4S,5R,6S)-2-(Hydroxymethyl)-6-(((R)-(4-hydroxytetrahydro-2H-pyran-4-yl)(3-methylpyridin-2-yl)methyl)thio)-5-methoxy-4-(4-(3,4,5-trifluorophenyl)-1H-1,2,3-triazol-1-yl)tetrahydro-2H-pyran-3-ol], for which the IC50 on human Gal-3 (hGal-3) (setting [2]) amounted to 0.06 µM; on human Gal-1 (hGal-1) it was 0.8 µM.
Turning to `Cc1nc(C)c(C(S[C@@H]2O[C@H](CO)[C@H](O)[C@H](n3cc(-c4cc(F)c(F)c(F)c4)nn3)[C@H]2O)C2(O)CCOCC2)nc1C` (stereo partly drawn) [Example 2.41.119., (2R,3R,4S,5R,6S)-2-(Hydroxymethyl)-6-(((4-hydroxytetrahydro-2H-pyran-4-yl)(3,5,6-trimethylpyrazin-2-yl)methyl)thio)-4-(4-(3,4,5-trifluorophenyl)-1H-1,2,3-triazol-1-yl)tetrahydro-2H-pyran-3,5-diol], the figures for the IC50 on human Gal-3 (hGal-3) (setting [3]) and at human Gal-1 (hGal-1) were 0.16 µM and 20 µM, respectively.
For `CC(C)(O)[C@@H](S[C@@H]1O[C@H](CO)[C@H](O)[C@H](n2cc(-c3cc(F)c(F)c(F)c3)nn2)[C@H]1O)c1cccnc1C(F)(F)F` [Example 2.31.118S., (2S,3R,4S,5R,6R)-2-(((S)-2-Hydroxy-2-methyl-1-(2-(trifluoromethyl)pyridin-3-yl)propyl)thio)-6-(hydroxymethyl)-4-(4-(3,4,5-trifluorophenyl)-1H-1,2,3-triazol-1-yl)tetrahydro-2H-pyran-3,5-diol], the results for the half-inhibitory concentration (IC50) at human Gal-3 (hGal-3) (setting [1]) and on human Gal-1 (hGal-1) were 6.21 µM and 8.2 µM, respectively.
For “(2S,3R,4S,5R,6R)-2-(((R)-((R)-4-Hydroxy-2,2-dimethyltetrahydro-2H-pyran-4-yl)(2-(trifluoromethyl)phenyl)methyl)thio)-6-(hydroxymethyl)-4-(4-(3,4,5-trifluorophenyl)-1H-1,2,3-triazol-1-yl)tetrahydro-2H-pyran-3,5-diol [Example 2.43.102RR.]”, the figures for the IC50 on human Gal-3 (hGal-3) (setting [3]) and at human Gal-1 (hGal-1) were 0.29 µM and 8.8 µM, respectively.
As to `CO[C@@H]1[C@@H](n2cc(-c3cc(F)c(C)c(F)c3)nn2)[C@@H](O)[C@@H](CO)O[C@H]1S[C@H](c1ncccc1C)C1(O)CCC(F)(F)CC1` [Example 3.44.126R.I., (2R,3R,4S,5R,6S)-6-(((R)-(4,4-Difluoro-1-hydroxycyclohexyl)(3-methylpyridin-2-yl)methyl)thio)-4-(4-(3,5-difluoro-4-methylphenyl)-1H-1,2,3-triazol-1-yl)-2-(hydroxymethyl)-5-methoxytetrahydro-2H-pyran-3-ol], the half-maximal inhibitory concentration (IC50) came out at 0.04 µM on human Gal-3 (hGal-3) (Table 14, read-out: IC50 (Gal-3 inhibition)) and 2.43 µM on human Gal-1 (hGal-1).
As to `Cc1c(F)cccc1C(S[C@@H]1O[C@H](CO)[C@H](O)[C@H](n2cc(-c3cc(F)c(F)c(F)c3)nn2)[C@H]1O)C(C)(C)O` (stereo partly drawn) [Example 2.31.114., (2S,3R,4S,5R,6R)-2-((1-(3-Fluoro-2-methylphenyl)-2-hydroxy-2-methylpropyl)thio)-6-(hydroxymethyl)-4-(4-(3,4,5-trifluorophenyl)-1H-1,2,3-triazol-1-yl)tetrahydro-2H-pyran-3,5-diol], the concentration for half-maximal inhibition (IC50) at human Gal-3 (hGal-3) (setting [1]) worked out at 0.13 µM; at human Gal-1 (hGal-1), 2.27 µM.
